From patent US8420696B2, “Use of low-dose ladostigil for neuroprotection” (priority 2005, dated 2013)

How the values were obtained:
[1] = test system: aged rats (spatial learning); assay: Example 3: spatial learning of aged rats in Morris water maze; format: in vivo, Wistar rats; conditions: 1 mg/kg/day in drinking fluid for four months from age 16 months
Protocol: Experiments were performed in 30 male rats of the Wistar strain. […] The rats were housed in pairs at an ambient temperature of 21° C. They were weighed once weekly and their fluid intake measured daily for two weeks and then twice weekly for the remaining 4 months. Ten of the rats were started on ladostigil 1 mg/kg/day in the drinking fluid when aged 16 months and given the drug for four months. The remaining 10 rats of the same age were given regular drinking water. At the end of the four months spatial memory of these 20 rats and of another 10 aged 3 months was tested in the Morris water maze as previously described (Shoham et al, 2006).

[2] = test system: dopaminergic neuroblastoma SH-SY5Y cells; conditions: cited from earlier work
[3] = test system: rats injected icv with STZ (spatial memory); assay: Place recognition test after icv STZ; format: in vivo, Sprague-Dawley rats
Protocol: Male Sprague-Dawley rats (63) weighing 320-340 g, aged 4 months, were anesthetized by an intraperitoneal injection of Equithesin 0.3 ml/kg. STZ (0.5 mg) dissolved in 2 μl artificial cerebrospinal fluid (CSF) was injected into each lateral ventricle of 45 rats. The stereotaxic co-ordinates for icv injection were: 0.9 mm posterior, 1.8 mm lateral and 3.8 mm ventral from the bregma level. Control rats (18) received a bilateral injection of 2 μl artificial CSF. STZ-injected rats (25) were given ladostigil (1 mg/kg of the hemitartrate salt/day) orally in a volume of (1 ml/kg) from one week before, until 1 or 8 weeks after icv STZ. The remaining 20 rats received 1 ml/kg water. The rats were housed two per cage with free access to food and water until the behavioral, enzymatic and cytochemical measurements were completed.
Episodic memory in the object recognition test was still intact 2 but not 4 weeks after a single icv STZ injection (Table 3). […] The object recognition test measured non-spatial working memory with characteristics of episodic memory that is primarily affected in senile dementia (Bartolini et al., Aniracetam restores object recognition impaired by age, scopolamine, and nucleus basalis lesions, Pharmacol. Biochem. Behav. (1996) 53:277-83). […] Two identical objects were placed in the arena and the time taken by the rats to explore each object during a period of 3 min was recorded. […]

MAO-A = molecular target: T1, MAO-A (Rattus norvegicus, UniProt P21396); assay: Example 2: MAO-A activity in homogenates of striatum; format: in vivo, rats; conditions: chronic 1 mg/kg; for MAO-A (%) inhibition: Striatum
T1 construct: from tissue; host or cells: striatum homogenate of dosed Sprague-Dawley rats
T1 sequence (P21396 1-526): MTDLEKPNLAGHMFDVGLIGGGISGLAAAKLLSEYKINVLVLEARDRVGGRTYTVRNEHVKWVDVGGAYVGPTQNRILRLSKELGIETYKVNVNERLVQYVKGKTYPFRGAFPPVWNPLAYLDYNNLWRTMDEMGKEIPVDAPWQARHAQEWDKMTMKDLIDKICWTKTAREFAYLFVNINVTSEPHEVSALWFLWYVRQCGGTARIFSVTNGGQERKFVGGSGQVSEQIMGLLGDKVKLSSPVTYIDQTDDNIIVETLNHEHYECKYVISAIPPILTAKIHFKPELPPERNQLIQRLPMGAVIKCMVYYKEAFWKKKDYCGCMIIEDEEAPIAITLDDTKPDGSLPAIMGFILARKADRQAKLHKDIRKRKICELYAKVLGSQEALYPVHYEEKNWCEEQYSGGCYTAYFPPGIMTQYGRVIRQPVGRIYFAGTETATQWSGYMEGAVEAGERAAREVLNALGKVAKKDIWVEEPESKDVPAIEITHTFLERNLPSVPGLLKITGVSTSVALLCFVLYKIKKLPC
Protocol: The effect of chronic ladostigil treatment on ChE activity in the cortex and hippocampus of rats was determined one week after icv STZ in 12 rats (3 treated with water and 9 with ladostigil). The effect of acute treatment with ladostigil 1 or 17 mg/kg was determined 2 hrs after drug administration. […] The brain was rapidly removed, washed with saline on ice and the cortex, hippocampus and striatum dissected out, quickly weighed and stored at −70° C. until assay. Total ChE activity in the cortex and hippocampus was measured as described in Wang et al., Gender differences in the effect of rivastigmine on brain cholinesterase activity and cognitive function in rats, Neuropharmacology (2000) 39:497-506, using the spectrophotometric method of Ellman et al., A new and rapid colorimetric determination of acetylcholinesterase activity, Biochem. Pharmacol. (1961) 7:88-95 with acetylthiocholine (Sigma Ltd) as a substrate using homogenate of 100 mg tissue in 1 ml phosphate buffer. To determine only butyrylcholinesterase (BuChE) activity the amounts of tissue/ml of buffer were increased 3-fold and butyrylthiocholine (Sigma Ltd) was used as a substrate. MAO A and B activity was measured in homogenates of striatum as described in Weinstock et al., Limited potentiation of blood pressure response to oral tyramine by brain-selective monoamine oxidase A-B inhibitor, TV-3326 in conscious rabbits, Neuropharmacology (2002) 43:999-1005.

C#CCN[C@@H]1CCc2ccc(OC(=O)N(C)CC)cc21 [ladostigil, R(+)-6-(N-methyl,N-ethyl-carbamoyloxy)-N′-propargyl-1-aminoindan]
Difference in spatial learning between young and old rats (Morris water maze) [1]: substantially abolished | Apoptosis in SH-SY5Y cells exposed to the NO donor Sin1 ([2]; 0.1-1 μM): prevented apoptosis | Apoptosis induced by Sin-1 in cultured SH-SY5Y cells [2]: suppress apoptosis | Discrimination index, Place ([3]; STZ (4 weeks) + ladostigil 1 mg/kg chronic, mean ± s.e.m.): 0.211 ± 0.07 | Discrimination in place recognition test ([3]; icv STZ with chronic ladostigil, significantly >0, P<0.05): significant discrimination index | MAO-A (%) inhibition (MAO-A; 60 min): 2.8 ± 2.5% | MAO-A (%) inhibition (MAO-A; 120 min): 3.8 ± 2.0% | Effect on striatal MAO-A activity (MAO-A): no effect
